Assay results: ChEMBL document CHEMBL1148258, “Synthesis of OSW-1 analogs with modified side chains and their antitumor activities” (Bioorg Med Chem Lett, 2004)

Assays:
Assay type in all cases: functional, cell-based
[1] = system: MCF7; experiment: In vitro antitumor activity of compound against MCF-7 cell line (human breast cancer cells)
[2] = system: BEL-7404 tumor cell line; experiment: In vitro antitumor activity of compound against 7404 cell line (human liver carcinoma cells)
[3] = system: AGS; experiment: In vitro antitumor activity of compound against AGS cell line (human stomach cancer cells)

Row | Molecule | IC50 ([1]; Homo sapiens, MCF7) [µM] | IC50 ([2]; Homo sapiens, BEL-7404) [µM] | IC50 ([3]; Homo sapiens, AGS) [µM] | IC50 ([1]; mcf7) [µM] | IC50 ([2]; bel-7404) [µM] | IC50 ([3]; ags) [µM]
1 | COc1ccc(C(=O)OC2C(OC3C(O)COC(O[C@H]4CC5C6CC=C7C[C@@H](O)CC[C@]7(C)C6CC([C@H](C)C(C)=O)[C@]5(C)[C@@H]4O)C3OC(C)=O)OCC(O)C2O)cc1 (stereo partly drawn) | 6.61 | 2.9 | 6.98 | – | – | –
2 | CISPLATIN | – | – | – | 18.7 | 8.37 | 24.1
3 | COc1ccc(C(=O)OC2C(OC3C(O)COC(O[C@H]4CC5C6CC=C7C[C@@H](O)CC[C@]7(C)C6CC([C@H](C)C(=O)CCC(C)C)[C@]5(C)[C@@H]4O)C3OC(C)=O)OCC(O)C2O)cc1 (stereo partly drawn) | 0.27 | 0.1 | 1.42 | – | – | –
4 | COc1ccc(C(=O)OC2C(OC3C(O)COC(O[C@H]4CC5C6CC=C7C[C@@H](O)CC[C@]7(C)C6CC([C@H](C)CCCC(C)C)[C@]5(C)[C@@H]4O)C3OC(C)=O)OCC(O)C2O)cc1 (stereo partly drawn) | 0.06 | 0.063 | 1.38 | – | – | –

Results, then the molecule that gave them:

Row | IC50 ([1]; Homo sapiens, MCF7) [µM] | IC50 ([2]; Homo sapiens, BEL-7404) [µM] | IC50 ([3]; Homo sapiens, AGS) [µM] | IC50 ([1]; mcf7) [µM] | IC50 ([2]; bel-7404) [µM] | IC50 ([3]; ags) [µM] | Molecule
5 | 1.79 | 1.86 | 7.26 | – | – | – | COc1ccc(C(=O)OC2C(OC3C(O)COC(O[C@H]4CC5C6CC=C7C[C@@H](O)CC[C@]7(C)C6CC([C@H](C)C(O)CCC(C)C)[C@]5(C)[C@@H]4O)C3OC(C)=O)OCC(O)C2O)cc1 (stereo partly drawn)
6 | 0.02 | 0.032 | 1.92 | – | – | – | CCCC(=O)[C@@H](C)C1CC2C(CC=C3C[C@@H](O)CC[C@@]32C)C2C[C@H](OC3OCC(O)C(OC4OCC(O)C(O)C4OC(=O)c4ccc(OC)cc4)C3OC(C)=O)[C@@H](O)[C@]21C (stereo partly drawn)
